Data: PMC11761369 (bioRxiv, 2025)

Experiments:
[1] = system: BBB cells; assay: UPLC-MS of PepTGN and analogs after incubation with BBB cells; format: cell-based; conditions: UPLC-MS (Figure 6C)
[2] = system: bEND.3 cell line; assay: μMap profiling of PepTGN intracellular interactors; format: cell-based, mouse; conditions: 37 °C, 1 h incubation
[3] = format: cell-based; conditions: after 30 minutes incubation; overlaying with ER-marker (ERp57/ERp60 antibody)
[4] = system: clathrin-mediated endocytosis; assay: Microscopy of AA3H entry with inhibition of clathrin-mediated endocytosis; format: cell-based; conditions: Pitstop2 40 μM
[5] = target: CALCRL (Homo sapiens, UniProt O60894+Q16602); assay: Flow cytometry of FITC-labeled PepTGN internalization with blocking agents; format: cell-based; conditions: compared to non-binding isotype control
Sequence of CALCRL (Q16602 23-461): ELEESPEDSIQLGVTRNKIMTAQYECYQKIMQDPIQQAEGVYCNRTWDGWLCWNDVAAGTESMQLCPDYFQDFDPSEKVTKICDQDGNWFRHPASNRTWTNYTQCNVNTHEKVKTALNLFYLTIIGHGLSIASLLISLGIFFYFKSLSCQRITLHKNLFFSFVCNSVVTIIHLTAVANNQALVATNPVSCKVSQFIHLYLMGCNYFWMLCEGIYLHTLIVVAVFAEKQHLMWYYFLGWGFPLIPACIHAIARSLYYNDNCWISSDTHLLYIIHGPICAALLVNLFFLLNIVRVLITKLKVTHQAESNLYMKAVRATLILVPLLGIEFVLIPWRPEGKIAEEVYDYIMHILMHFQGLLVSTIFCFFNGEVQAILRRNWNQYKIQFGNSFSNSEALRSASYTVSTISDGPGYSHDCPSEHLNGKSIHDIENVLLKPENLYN
Sequence of CALCRL (O60894 27-148): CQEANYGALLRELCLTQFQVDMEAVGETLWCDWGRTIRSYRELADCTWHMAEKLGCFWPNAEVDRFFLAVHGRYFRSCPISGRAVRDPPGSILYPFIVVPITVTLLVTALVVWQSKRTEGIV

With AGNYKALHPHNG [T12A analog] the “+322 mass shift after incubation with BBB cells” value [1] was “did not display”.

For TGNYKALHPHNG [PepTGN], the “interactor genes associated to ER and Golgi trafficking and secretory pathways” value [2] was “about 30%” and the cellular localization [3] was “distinct puncta”.

In the case of `O=C1NC(=NS(=O)(=O)c2cccc3ccccc23)S/C1=C\c1ccc(Br)cc1` [Pitstop2], the “effect on AA3H internalization” value [4] is reported as “disrupted”.

B1: Erenumab: monoclonal antibody used in migraine therapy that targets CALCRL and inhibits CGRP binding (antibody, chains of the INN, looked up, V domains shown)
VH: QVQLVESGGGVVQPGRSLRLSCAASGFTFSSFGMHWVRQAPGKGLEWVAVISFDGSIKYSVDSVKGRFTISRDNSKNTLFLQMNSLRAEDTAVYYCARDRLNYYDSSGYYHYKYYGMAVWGQGTTVTVSS
VL: QSVLTQPPSVSAAPGQKVTISCSGSSSNIGNNYVSWYQQLPGTAPKLLIYDNNKRPSGIPDRFSGSKSGTSTTLGITGLQTGDEADYYCGTWDSRLSAVVFGGGTKLTVL
In the case of B1, the “effect of pre-incubation on PepTGN internalization” value [5] is reported as “significantly decreased”.
